According to US9493396B2, “Substituted naphthalene compounds as calcium sensing receptor modulators” (LUPIN ATLANTIS HOLDINGS SA, priority 2013, dated 2016):
Where a name gives a salt, the structure may show the parent alone. Blank lines part the entries; values can stand above or below the compound they belong to.

Molecular target: T1, Calcium sensing receptor (hCaSR) (Homo sapiens, UniProt P41180)
T1 construct: expressed in transfected cells; host or cells: HEK293 (stably transfected)
T1 sequence (P41180 20-1078): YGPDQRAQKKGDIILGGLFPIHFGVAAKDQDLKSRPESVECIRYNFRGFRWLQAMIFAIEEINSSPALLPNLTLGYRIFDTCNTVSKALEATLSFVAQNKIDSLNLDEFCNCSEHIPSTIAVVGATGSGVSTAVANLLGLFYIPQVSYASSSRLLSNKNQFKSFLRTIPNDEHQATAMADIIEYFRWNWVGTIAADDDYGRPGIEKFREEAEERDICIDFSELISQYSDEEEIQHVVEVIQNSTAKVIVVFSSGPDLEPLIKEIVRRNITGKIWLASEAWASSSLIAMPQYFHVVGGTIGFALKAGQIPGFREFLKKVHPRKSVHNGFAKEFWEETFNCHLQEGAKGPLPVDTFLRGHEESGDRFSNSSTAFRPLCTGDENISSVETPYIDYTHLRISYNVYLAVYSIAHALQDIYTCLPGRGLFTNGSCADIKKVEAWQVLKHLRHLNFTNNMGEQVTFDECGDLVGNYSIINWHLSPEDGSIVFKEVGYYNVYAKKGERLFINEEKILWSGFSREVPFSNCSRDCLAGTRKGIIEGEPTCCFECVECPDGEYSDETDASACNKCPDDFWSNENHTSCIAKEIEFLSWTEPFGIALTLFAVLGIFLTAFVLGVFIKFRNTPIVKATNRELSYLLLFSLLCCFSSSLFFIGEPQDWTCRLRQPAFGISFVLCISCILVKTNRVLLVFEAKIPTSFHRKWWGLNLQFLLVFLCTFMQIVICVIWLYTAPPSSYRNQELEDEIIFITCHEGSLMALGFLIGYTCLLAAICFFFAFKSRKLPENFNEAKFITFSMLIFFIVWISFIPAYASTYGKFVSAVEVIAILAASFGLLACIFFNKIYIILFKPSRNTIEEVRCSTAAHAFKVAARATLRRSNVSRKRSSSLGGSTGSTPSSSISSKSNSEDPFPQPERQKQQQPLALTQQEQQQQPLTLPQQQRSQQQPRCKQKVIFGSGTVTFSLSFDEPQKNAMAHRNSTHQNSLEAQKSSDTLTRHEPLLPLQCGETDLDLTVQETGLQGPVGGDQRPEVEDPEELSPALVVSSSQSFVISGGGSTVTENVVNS
Assay: In-vitro assay of calcimimetics through modulation of calcium sensing receptor (intracellular calcium increase, FLIPR)
Type: cell-based
Details: stably transfected HEK293 cells expressing hCaSR; Fluo4NW dye; 0.3 mM CaCl2; 8-point assay; read-out: EC50 in range
Procedure: In-Vitro Assay Method of Calcimimetics Through Modulation of Calcium Sensing Receptor (CaSR): The ability of the compounds to modulate Calcium sensing receptor is determined by measuring an increase in intracellular calcium [Ca^2+]i. Stably transfected HEK293 cells expressing hCaSR_pTriEx-3 hygro vector are developed. Cells are grown overnight on a 96-well plate to 80% confluency in Ham's F12 containing 20% FBS at 37° C., 5% CO2. Subsequently, cells are washed extensively with 20 mM HEPES buffer containing 126 mM […], 1 mM MgCl2 and 4 mM KCl to remove serum components that might interfere with the assay. Cells are loaded with calcium sensing Fluo4NW dye in HEPES base buffer containing 0.1% BSA and 1 mg/ml glucose for 30 minutes to measure changes in intracellular calcium. The activities of the compounds are measured in FLIPR using 0.3 mM CaCl2 in 20 mM HEPES base buffer. The effectiveness of the compound to modulate receptor activity is determined by calculating the EC50 responses for that compound in an 8-point assay and plotted using GraphPad Prism 5.

Compound: COc1cccc([C@@H](C)NCc2cc(-c3ccc(C)c(C(=O)O)c3)c3ccccc3c2)c1 [Example 90, (R)-5-(3-(((1-(3-Methoxyphenyl)ethyl)amino)methyl)naphthalen-1-yl)-2-methylbenzoic acid hydrochloride]
EC50: < 20 nM

Compound: COc1cccc([C@@H](C)NC(C)c2cc(-c3cc(C)cc(C(=O)O)c3)c3ccccc3c2)c1 (stereo partly drawn) [Example 125, 3-(3-(1-(((R)-1-(3-Methoxyphenyl)ethyl)amino)ethyl)naphthalen-1-yl)-5-methylbenzoic acid hydrochloride]
EC50: 50 to 400 nM

Compound: COc1cccc([C@@H](C)NC(C)c2cc(-c3cc(F)cc(C(=O)O)c3)c3ccccc3c2)c1 (stereo partly drawn) [Example 118, 3-Fluoro-5-(3-(1-(((R)-1-(3-methoxyphenyl)ethyl)amino)ethyl)naphthalen-1-yl)benzoic acid hydrochloride]
EC50: < 20 nM

Compound: COc1cccc([C@@H](C)NC(C)c2cc(-c3ccc(CCC(=O)O)c(F)c3)c3ccccc3c2)c1 (stereo partly drawn) [Example 136, 3-(2-Fluoro-4-(3-(1-(((R)-1-(3-methoxyphenyl)ethyl)amino)ethyl)naphthalen-1-yl)phenyl) propanoic acid hydrochloride]
EC50: 20 to 50 nM

Compound: CCC(N[C@H](C)c1cccc(OC)c1)c1cc(-c2cc(F)cc(CCC(=O)O)c2)c2ccccc2c1 (stereo partly drawn) [Example 148, 3-(3-Fluoro-5-(3-(1-(((R)-1-(3-methoxyphenyl)ethyl)amino)propyl)naphthalen-1-yl)phenyl)propanoic acid hydrochloride]
EC50: 50 to 400 nM

The next lines start with the values.

EC50: < 20 nM
Compound: COc1cccc([C@@H](C)NC(C)c2cc(-c3ccc(OC(F)(F)F)cc3)c3ccccc3c2)c1 (stereo partly drawn) [Example 19, (1R)-1-(3-Methoxyphenyl)-N-(1-(4-(4-(trifluoromethoxy)phenyl)naphthalen-2-yl)ethyl)ethanamine hydrochloride]

EC50: < 20 nM
Compound: COc1cccc([C@@H](C)NC(C)c2cc(-c3ccc(C(F)(F)F)cc3)c3ccc(F)cc3c2)c1 (stereo partly drawn) [Example 162, (1R)-1-(3-methoxyphenyl)-N-(1-(7-fluoro-4-(4-(trifluoromethyl)phenyl)naphthalen-2-yl)ethyl)ethanamine hydrochloride]

EC50: 20 to 50 nM
Compound: COc1cc([C@@H](C)NCc2cc(-c3cccc(C(F)(F)F)c3)c3ccccc3c2)ccc1F [Example 4, (R)-1-(4-Fluoro-3-methoxyphenyl)-N-((4-(3-(trifluoromethyl)phenyl)naphthalen-2-yl)methyl)ethanamine hydrochloride]

EC50: 20 to 50 nM
Compound: COc1cccc([C@@H](C)NC(C)c2cc(-c3cccc(C(=O)O)c3C)c3ccccc3c2)c1 (stereo partly drawn) [Example 116, 3-(3-(1-(((R)-1-(3-Methoxyphenyl)ethyl)amino)ethyl)naphthalen-1-yl)-2-methylbenzoic acid hydrochloride]

EC50: 20 to 50 nM
Compound: CC(N[C@H](C)c1cccc(Cl)c1)c1cc(-c2cc(F)cc(CCC(=O)O)c2)c2ccccc2c1 (mixture of isomers) [Example 156, 3-(3-(3-(1-(((R)-1-(3-Chlorophenyl)ethyl)amino)ethyl)naphthalen-1-yl)-5-fluorophenyl)propanoic acid hydrochloride]

EC50: 50 to 400 nM
Compound: COc1cccc([C@@H](C)NC(C)c2cc(-c3ccc(C(=O)O)c(C)c3)c3ccccc3c2)c1 (stereo partly drawn) [Example 130, 4-(3-(1-(((R)-1-(3-Methoxyphenyl)ethyl)amino)ethyl)naphthalen-1-yl)-2-methylbenzoic acid hydrochloride]

EC50: 50 to 400 nM
Compound: COc1cccc([C@@H](C)NCc2cc(-c3ccc(C(C)C)c(C(=O)O)c3)c3ccccc3c2)c1 [Example 105, (R)-2-Isopropyl-5-(3-(((1-(3-methoxyphenyl)ethyl)amino)methyl)naphthalen-1-yl)benzoic acid hydrochloride]

EC50: 20 to 50 nM
Compound: COc1cccc([C@@H](C)NCc2cc(-c3cccc(C(=O)O)c3F)c3ccccc3c2)c1 [Example 103, (R)-2-Fluoro-3-(3-(((1-(3-methoxyphenyl)ethyl)amino)methyl)naphthalen-1-yl)benzoic acid hydrochloride]
